Source: patent US12122763B2, “Substituted piperidines for androgen receptor degradation” (UBIX THERAPEUTICS, INC., priority 2020, dated 2024)

Target: T1, Androgen Receptor (AR) protein (Homo sapiens, UniProt P10275, T878A)
T1 construct: endogenous in cells; host or cells: LNCaP
Assay: Androgen Receptor (AR) protein degradation assay in LNCaP cells, western blotting
Type: cell-based
Conditions: 20 h; for inhibition at 0.01 µM: 0.01 μM compound; for inhibition at 0.1 µM: 0.1 μM compound; for inhibition at 1 µM: 1 μM compound
Procedure, shortened: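 LNCaP prostate cancer cells were cultured 3 days, then treated with compound for 20 h. Lysates in 1% SDS buffer were normalised by BCA, and 8 μg protein was run on 4–12% Bis-Tris gels. AR was immunoblotted with chemiluminescence, using GAPDH/β-actin as loading controls.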

T1 sequence (P10275 whole entry T878A): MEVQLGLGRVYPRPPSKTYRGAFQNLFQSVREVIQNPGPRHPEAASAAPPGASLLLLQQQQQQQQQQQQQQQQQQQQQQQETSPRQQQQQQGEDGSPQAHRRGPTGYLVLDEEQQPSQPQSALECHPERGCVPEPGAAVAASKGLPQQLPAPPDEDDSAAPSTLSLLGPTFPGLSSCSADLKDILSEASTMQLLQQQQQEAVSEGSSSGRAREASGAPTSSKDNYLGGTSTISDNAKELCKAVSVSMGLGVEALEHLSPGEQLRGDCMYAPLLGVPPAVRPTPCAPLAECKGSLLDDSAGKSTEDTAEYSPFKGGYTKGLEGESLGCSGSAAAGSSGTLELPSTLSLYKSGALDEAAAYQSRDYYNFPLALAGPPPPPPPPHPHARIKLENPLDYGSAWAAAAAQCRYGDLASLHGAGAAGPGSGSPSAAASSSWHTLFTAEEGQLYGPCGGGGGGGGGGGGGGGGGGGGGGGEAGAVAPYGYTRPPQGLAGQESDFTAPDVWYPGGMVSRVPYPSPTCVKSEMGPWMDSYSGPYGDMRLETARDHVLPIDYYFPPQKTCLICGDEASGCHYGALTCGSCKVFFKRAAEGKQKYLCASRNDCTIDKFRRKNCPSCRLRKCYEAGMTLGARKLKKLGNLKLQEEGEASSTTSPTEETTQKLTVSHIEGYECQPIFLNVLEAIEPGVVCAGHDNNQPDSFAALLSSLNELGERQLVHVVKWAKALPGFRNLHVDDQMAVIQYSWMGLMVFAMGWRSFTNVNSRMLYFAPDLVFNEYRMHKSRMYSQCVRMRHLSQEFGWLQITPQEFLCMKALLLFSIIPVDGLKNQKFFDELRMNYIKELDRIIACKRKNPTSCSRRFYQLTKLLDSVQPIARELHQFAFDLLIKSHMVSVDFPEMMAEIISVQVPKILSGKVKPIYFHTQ
T1 sequence (Q96SW2 whole entry partner): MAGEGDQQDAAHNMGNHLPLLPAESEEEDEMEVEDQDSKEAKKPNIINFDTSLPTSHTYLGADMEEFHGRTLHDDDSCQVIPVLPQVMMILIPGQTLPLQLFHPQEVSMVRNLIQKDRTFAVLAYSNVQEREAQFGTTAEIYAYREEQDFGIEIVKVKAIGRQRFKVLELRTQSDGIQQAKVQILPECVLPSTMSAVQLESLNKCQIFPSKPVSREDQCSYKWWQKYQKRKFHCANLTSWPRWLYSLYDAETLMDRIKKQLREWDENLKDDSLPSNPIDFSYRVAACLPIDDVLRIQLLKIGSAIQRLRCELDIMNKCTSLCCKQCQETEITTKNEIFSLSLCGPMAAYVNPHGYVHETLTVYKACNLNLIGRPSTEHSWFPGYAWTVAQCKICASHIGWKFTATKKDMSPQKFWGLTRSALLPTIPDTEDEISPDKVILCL

Compound | inhibition at 0.01 µM [%] | inhibition at 0.1 µM [%] | inhibition at 1 µM [%]
N#Cc1ccc(N2CCC(C(=O)Nc3ccc(N4CCC(CN5CC6(CCN(c7ccc8nnn(C9CCC(=O)NC9=O)c(=O)c8c7)CC6)C5)CC4)cn3)CC2)cc1C(F)(F)F (stereo not drawn) [Example 53, 1-(4-cyano-3-(trifluoromethyl)phenyl)-N-(5-(4-((7-(3-(2,6-dioxopiperidin-3-yl)-4-oxo-3,4-dihydrobenzo[d][1,2,3]triazin-6-yl)-2,7-diazaspiro[3.5]nonan-2-yl)methyl)piperidin-1-yl)pyridin-2-yl)piperidine-4-carboxamide] | 27 | 89 | 93
N#Cc1ccc(N2CCC(F)(C(=O)Nc3ccc(N4CCC(CN5CC6(CCN(c7ccc8c(c7)C(=O)N(C7CCC(=O)NC7=O)C8=O)CC6)C5)CC4)cn3)CC2)cc1C(F)(F)F (stereo not drawn) [Example 54, 1-(4-cyano-3-(trifluoromethyl)phenyl)-N-(5-(4-((7-(2-(2,6-dioxopiperidin-3-yl)-1,3-dioxoisoindolin-5-yl)-2,7-diazaspiro[3.5]nonan-2-yl)methyl)piperidin-1-yl)pyridin-2-yl)-4-fluoropiperidine-4-carboxamide] | 60 | 95 | 98
N#Cc1ccc(N2CCC(O)(C(=O)Nc3ccc(N4CCC(CN5CC6(CCN(c7ccc8c(c7)C(=O)N(C7CCC(=O)NC7=O)C8=O)CC6)C5)CC4)cn3)CC2)cc1C(F)(F)F (stereo not drawn) [Example 55, 1-(4-cyano-3-(trifluoromethyl)phenyl)-N-(5-(4-((7-(2-(2,6-dioxopiperidin-3-yl)-1,3-dioxoisoindolin-5-yl)-2,7-diazaspiro[3.5]nonan-2-yl)methyl)piperidin-1-yl)pyridin-2-yl)-4-hydroxypiperidine-4-carboxamide] | 34 | 69 | 95
N#Cc1ccc(N2CCC(CC(=O)Nc3ccc(N4CCC(CN5CC6(CCN(c7ccc8c(c7)C(=O)N(C7CCC(=O)NC7=O)C8=O)CC6)C5)CC4)cn3)C2)cc1C(F)(F)F (stereo not drawn) [Example 56, 2-(1-(4-cyano-3-(trifluoromethyl)phenyl)pyrrolidin-3-yl)-N-(5-(4-((7-(2-(2,6-dioxopiperidin-3-yl)-1,3-dioxoisoindolin-5-yl)-2,7-diazaspiro[3.5]nonan-2-yl)methyl)piperidin-1-yl)pyridin-2-yl)acetamide] | -8 | 87 | 95
N#Cc1ncc(N2CCC(C(=O)Nc3ccc(N4CCC(CN5CC6(CCN(c7ccc8c(c7)C(=O)N(C7CCC(=O)NC7=O)C8=O)CC6)C5)CC4)cn3)CC2)cc1C(F)(F)F (stereo not drawn) [Example 57, 1-(6-cyano-5-(trifluoromethyl)pyridin-3-yl)-N-(5-(4-((7-(2-(2,6-dioxopiperidin-3-yl)-1,3-dioxoisoindolin-5-yl)-2,7-diazaspiro[3.5]nonan-2-yl)methyl)piperidin-1-yl)pyridin-2-yl)piperidine-4-carboxamide] | 43 | 85 | 96
N#Cc1ncc(N2CCC(F)(C(=O)Nc3ccc(N4CCC(CN5CC6(CCN(c7ccc8c(c7)C(=O)N(C7CCC(=O)NC7=O)C8=O)CC6)C5)CC4)cn3)CC2)cc1C(F)(F)F (stereo not drawn) [Example 58, 1-(6-cyano-5-(trifluoromethyl)pyridin-3-yl)-N-(5-(4-((7-(2-(2,6-dioxopiperidin-3-yl)-1,3-dioxoisoindolin-5-yl)-2,7-diazaspiro[3.5]nonan-2-yl)methyl)piperidin-1-yl)pyridin-2-yl)-4-fluoropiperidine-4-carboxamide] | 16 | 41 | 77
